In PubChem BioAssay AID248 (DTP/NCI, 2004):
Where “and” joins values, the source holds several entries; their conditions need not be identical. Equal entries are not always repeated. Toxic doses and inconclusive results are not listed.

Test system: L1210 leukemia ip in BDF1 mice, survival T/C
Assay: NCI In Vivo Anticancer Drug Screen. Data for tumor model L1210 Leukemia (intraperitoneal) in B6D2F1 (BDF1) mice
Conditions: higher = longer survival
In short: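 Transplanted-tumor mice were given test agent; controls received vehicle only. Survival readings from the two groups were divided (treated over control).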

[1] = endpoint: mean survival time, dose: 100.0 mg/kg/injection, schedule: Q01DX009 (ip), vehicle: saline with Tween-80
[2] = endpoint: mean survival time, dose: 100.0 mg/kg/injection, schedule: Q01DX009 (ip), vehicle: saline
[3] = endpoint: mean survival time, dose: 200.0 mg/kg/injection, schedule: Q01DX009 (ip), vehicle: saline
[4] = endpoint: mean survival time, dose: 400.0 mg/kg/injection, schedule: Q01DX009 (ip), vehicle: saline
[5] = endpoint: mean survival time, dose: 100.0 mg/kg/injection, schedule: Q01DX001 (ip), vehicle: carboxymethylcellulose (CMC)
[6] = endpoint: mean survival time, dose: 200.0 mg/kg/injection, schedule: Q01DX001 (ip), vehicle: carboxymethylcellulose (CMC)
[7] = endpoint: mean survival time, dose: 100.0 mg/kg/injection, schedule: Q04DX003 (ip), vehicle: saline with Tween-80
[8] = endpoint: mean survival time, dose: 200.0 mg/kg/injection, schedule: Q04DX003 (ip), vehicle: saline with Tween-80
[9] = endpoint: mean survival time, dose: 400.0 mg/kg/injection, schedule: Q01DX001 (ip), vehicle: saline
[10] = endpoint: mean survival time, dose: 100.0 mg/kg/injection, schedule: Q01DX001 (ip), vehicle: saline
[11] = endpoint: mean survival time, dose: 200.0 mg/kg/injection, schedule: Q01DX001 (ip), vehicle: saline

For O=C(/C=C/c1cccc([N+](=O)[O-])c1)Nc1cccc(S(=O)(=O)F)c1, the T/C [1] was 89 % of control, the T/C (endpoint: mean survival time, dose: 200.0 mg/kg/injection, schedule: Q01DX009 (ip), vehicle: saline with Tween-80) was 96 % of control and the T/C (endpoint: mean survival time, dose: 400.0 mg/kg/injection, schedule: Q01DX009 (ip), vehicle: saline with Tween-80) was 97 % of control.
NN1CCN(N)C(=O)C1=O was tested, and the T/C (endpoint: mean survival time, dose: 100.0 mg/kg/injection, schedule: Q04DX003 (ip), vehicle: saline) was 105 % of control, the T/C (endpoint: mean survival time, dose: 200.0 mg/kg/injection, schedule: Q04DX003 (ip), vehicle: saline) was 108 % of control and the T/C (endpoint: mean survival time, dose: 400.0 mg/kg/injection, schedule: Q04DX003 (ip), vehicle: saline) was 97 % of control.
For C=C(Cl)CSC(C)(C)C, the T/C [2] was 118 % of control, the T/C (endpoint: mean survival time, dose: 100.0 mg/kg/injection, schedule: Q04DX002 (ip), vehicle: saline) was 100 % of control and the T/C [3] was 100 % of control. For the same molecule, the T/C (endpoint: mean survival time, dose: 200.0 mg/kg/injection, schedule: Q04DX002 (ip), vehicle: saline) was 97 % of control, the T/C [4] was 93 % of control and the T/C (endpoint: mean survival time, dose: 400.0 mg/kg/injection, schedule: Q04DX002 (ip), vehicle: saline) was 93 % of control.
For CC12CCCC(O)(C1)NC(=O)C2C#N (configuration not stated), the T/C [5] was 102 % of control, the T/C [6] was 97 % of control and the T/C (endpoint: mean survival time, dose: 400.0 mg/kg/injection, schedule: Q01DX001 (ip), vehicle: carboxymethylcellulose (CMC)) was 94 % of control.
For Oc1cccc2c1ccc1ccc3ccccc3c12, the T/C [7] was 92 % of control, the T/C [8] was 95 % of control and the T/C (endpoint: mean survival time, dose: 400.0 mg/kg/injection, schedule: Q04DX003 (ip), vehicle: saline with Tween-80) was 90 % of control.
With C#CC[N+]1=CN(c2ccc(C)cc2)Cc2cc(C)ccc21 the T/C (endpoint: mean survival time, dose: 50.0 mg/kg/injection, schedule: Q01DX009 (ip), vehicle: saline with Tween-80) was 89 % of control, the T/C [1] was 93 % of control and the T/C [7] was 110 % of control. For the same molecule, the T/C [8] was 98 % of control.
For Cc1cc2c([N+](=O)[O-])c3ccc(Cl)nn3c2n[n+]1[O-], the T/C (endpoint: mean survival time, dose: 62.5 mg/kg/injection, schedule: Q04DX002 (ip), vehicle: Klucel (hydroxypropylcellulose) (HPC)) was 106 % of control, the T/C (endpoint: mean survival time, dose: 125.0 mg/kg/injection, schedule: Q04DX002 (ip), vehicle: Klucel (hydroxypropylcellulose) (HPC)) was 114 % of control and the T/C (endpoint: mean survival time, dose: 250.0 mg/kg/injection, schedule: Q04DX002 (ip), vehicle: Klucel (hydroxypropylcellulose) (HPC)) was 95 % of control.
In the case of NS(=O)(=O)c1nc[nH]c1[N+](=O)[O-], the T/C (endpoint: mean survival time, dose: 100.0 mg/kg/injection, schedule: Q01DX009 (ip), vehicle: acetone) is reported as 92 % of control and the T/C (endpoint: mean survival time, dose: 200.0 mg/kg/injection, schedule: Q01DX009 (ip), vehicle: acetone) is reported as 90 % of control.
In the case of CN1CCN(P(c2ccccc2)N2CCN(C)CC2)CC1, the T/C (endpoint: mean survival time, dose: 100.0 mg/kg/injection, schedule: Q04DX002 (ip), vehicle: saline with Tween-80) is reported as 107 % of control, the T/C (endpoint: mean survival time, dose: 200.0 mg/kg/injection, schedule: Q04DX002 (ip), vehicle: saline with Tween-80) is reported as 103 % of control and the T/C (endpoint: mean survival time, dose: 400.0 mg/kg/injection, schedule: Q04DX002 (ip), vehicle: saline with Tween-80) is reported as 95 % of control.
For Nc1nc(SSc2nc(N)nc3c2ncn3C2CC(O)C(CO)O2)c2ncn(C3CC(O)C(CO)O3)c2n1 (configuration not stated), the T/C (endpoint: mean survival time, dose: 1.0 mg/kg/injection, schedule: Q01DX009 (ip), vehicle: saline) was 212 % of control, the T/C (endpoint: mean survival time, dose: 2.0 mg/kg/injection, schedule: Q01DX009 (ip), vehicle: saline) was 223 % of control and the T/C (endpoint: mean survival time, dose: 75.0 mg/kg/injection, schedule: Q01DX001 (ip), vehicle: saline) was 100 % of control. For the same molecule, the T/C (endpoint: mean survival time, dose: 119.0 mg/kg/injection, schedule: Q01DX009 (ip), vehicle: saline) was 118 % of control, the T/C (endpoint: mean survival time, dose: 178.0 mg/kg/injection, schedule: Q01DX009 (ip), vehicle: saline) was 116 % of control and the T/C (endpoint: mean survival time, dose: 267.0 mg/kg/injection, schedule: Q01DX001 (ip), vehicle: saline) was 168 % of control. The T/C (endpoint: mean survival time, dose: 267.0 mg/kg/injection, schedule: Q01DX009 (ip), vehicle: saline) was 88 % of control, the T/C [9] was 157 % of control and 178 % of control and the T/C (endpoint: mean survival time, dose: 600.0 mg/kg/injection, schedule: Q01DX001 (ip), vehicle: saline) was 201 % of control. For the same molecule, the T/C (endpoint: mean survival time, dose: 31.3 micrograms/kg/injection, schedule: Q01DX009 (ip), vehicle: saline) was 96 % of control, the T/C (endpoint: mean survival time, dose: 62.5 micrograms/kg/injection, schedule: Q01DX009 (ip), vehicle: saline) was 109 % of control and the T/C (endpoint: mean survival time, dose: 125.0 micrograms/kg/injection, schedule: Q01DX009 (ip), vehicle: saline) was 112 % of control. For the same molecule, the T/C (endpoint: mean survival time, dose: 250.0 micrograms/kg/injection, schedule: Q01DX009 (ip), vehicle: saline) was 109 % of control.
For Nc1[nH]c(=O)ncc1F, the T/C [5] was 97 % of control, the T/C [10] was 102 % of control and the T/C (endpoint: mean survival time, dose: 100.0 mg/kg/injection, schedule: Q01DX009 (ip), vehicle: carboxymethylcellulose (CMC)) was 98 % of control. For the same molecule, the T/C [6] was 104 % of control, the T/C [11] was 102 % of control and the T/C (endpoint: mean survival time, dose: 200.0 mg/kg/injection, schedule: Q01DX009 (ip), vehicle: carboxymethylcellulose (CMC)) was 103 % of control. The T/C [9] was 100 % of control, the T/C (endpoint: mean survival time, dose: 400.0 mg/kg/injection, schedule: Q01DX009 (ip), vehicle: carboxymethylcellulose (CMC)) was 103 % of control and the T/C (endpoint: mean survival time, dose: 800.0 mg/kg/injection, schedule: Q01DX001 (ip), vehicle: saline) was 102 % of control. The T/C (endpoint: mean survival time, dose: 800.0 mg/kg/injection, schedule: Q01DX009 (ip), vehicle: carboxymethylcellulose (CMC)) was 104 % of control, the T/C (endpoint: median survival time, dose: 31.2 mg/kg/injection, schedule: Q03HX024 (ip), vehicle: water) was 100 % of control and the T/C (endpoint: median survival time, dose: 62.5 mg/kg/injection, schedule: Q03HX024 (ip), vehicle: water) was 100 % of control. For the same molecule, the T/C (endpoint: median survival time, dose: 125.0 mg/kg/injection, schedule: Q03HX024 (ip), vehicle: water) was 100 % of control, the T/C (endpoint: median survival time, dose: 250.0 mg/kg/injection, schedule: Q03HX024 (ip), vehicle: water) was 105 % of control and the T/C (endpoint: median survival time, dose: 250.0 mg/kg/injection, schedule: Q04DX003 (ip), vehicle: water) was 100 % of control. The T/C (endpoint: median survival time, dose: 500.0 mg/kg/injection, schedule: Q04DX003 (ip), vehicle: water) was 100 % of control and the T/C (endpoint: median survival time, dose: 1000.0 mg/kg/injection, schedule: Q04DX003 (ip), vehicle: water) was 100 % of control.
In the case of Nc1nc(N)c2ncn(C3CC(O)C(CO)O3)c2n1 (configuration not stated), the T/C (endpoint: mean survival time, dose: 50.0 mg/kg/injection, schedule: Q01DX001 (ip), vehicle: saline) is reported as 96 % of control, the T/C [10] is reported as 110 % of control and the T/C [11] is reported as 90 % of control. For the same molecule, the T/C [9] was 96 % of control.
For COCCOC(C)C(=O)C(O)S(=O)(=O)O (configuration not stated), the T/C (endpoint: mean survival time, dose: 500.0 mg/kg/injection, schedule: Q01DX Z (oral), vehicle: saline) was 86 % of control and the T/C (endpoint: mean survival time, dose: 1000.0 mg/kg/injection, schedule: Q01DX Z (oral), vehicle: saline) was 87 % of control.
N=C(N)c1ccc(C(=N)N)cc1 was tested, and the T/C (endpoint: mean survival time, dose: 25.0 mg/kg/injection, schedule: Q01DX009 (ip), vehicle: water) was 95 % of control, the T/C (endpoint: mean survival time, dose: 50.0 mg/kg/injection, schedule: Q01DX009 (ip), vehicle: water) was 95 % of control and 99 % of control and the T/C (endpoint: mean survival time, dose: 100.0 mg/kg/injection, schedule: Q01DX009 (ip), vehicle: water) was 97 % of control and 103 % of control.
For CC(Cl)CN(C)c1ccc2ccccc2c1 (configuration not stated), the T/C (endpoint: median survival time, dose: 100.0 mg/kg/injection, schedule: Q01DX009 (ip), vehicle: Klucel (hydroxypropylcellulose) (HPC)) was 97 % of control and the T/C (endpoint: median survival time, dose: 200.0 mg/kg/injection, schedule: Q01DX009 (ip), vehicle: Klucel (hydroxypropylcellulose) (HPC)) was 87 % of control.
Cc1cc(Cl)ccc1OCC(=O)OCCC1=CCC2CC1C2(C)C (configuration not stated) was tested, and the T/C [2] was 94 % of control, the T/C [3] was 100 % of control and the T/C [4] was 102 % of control.
Nc1[nH]c(=O)[nH]c(=O)c1N=Nc1ccc(S(=O)(=O)Nc2ncccn2)cc1 was tested, and the T/C [10] was 94 % of control, the T/C [11] was 98 % of control and the T/C [9] was 96 % of control.
In the case of CCc1c(C)nc(N)[nH]c1=O, the T/C [7] is reported as 106 % of control and the T/C [8] is reported as 106 % of control.
Nc1ccccc1-c1nc(N)c2ccccc2n1 was tested, and the T/C (endpoint: mean survival time, dose: 100.0 mg/kg/injection, schedule: Q01DX001 (ip), vehicle: Klucel (hydroxypropylcellulose) (HPC)) was 102 % of control, the T/C (endpoint: mean survival time, dose: 200.0 mg/kg/injection, schedule: Q01DX001 (ip), vehicle: Klucel (hydroxypropylcellulose) (HPC)) was 102 % of control and the T/C (endpoint: mean survival time, dose: 400.0 mg/kg/injection, schedule: Q01DX001 (ip), vehicle: Klucel (hydroxypropylcellulose) (HPC)) was 108 % of control.
C=CCOP1(=O)OCC2OC(n3cnc4c(N)ncnc43)C(O)C2O1 (configuration not stated) was tested, and the T/C (endpoint: mean survival time, dose: 50.0 mg/kg/injection, schedule: Q01DX009 (ip), vehicle: saline) was 98 % of control, the T/C (endpoint: mean survival time, dose: 100.0 mg/kg/injection, schedule: Q01DX005 (ip), vehicle: saline) was 100 % of control and the T/C [2] was 89 % of control. For the same molecule, the T/C (endpoint: mean survival time, dose: 200.0 mg/kg/injection, schedule: Q01DX005 (ip), vehicle: saline) was 92 % of control and the T/C [3] was 97 % of control.
